Measured values taken from patent publication US4360665A, “4"-N-(Substituted)-apramycin antibiotic derivatives and intermediates therefor” (Eli Lilly and Company, priority 1981, dated 1982).
Converted amounts (≈) assume the structure as drawn. Like-named read-outs stand apart in the source and are kept apart here.

Key:
[1] = test system: Staphlyococcus aureus 3055; assay: Subcutaneous therapy of experimental bacterial infection in mice; assay type: in vivo; conditions: Mus musculus, sc, subcutaneous doses at 1 and 5 hours postinfection, read-out: Effective Dose (ED50), dose to protect 50 percent of the test animals
Experimental: Table III illustrates the effective dose (ED50, effective dose to protect 50 percent of the test animals) for a representative compound of this invention against an experimental bacterial infection in mice. | *mg/kg × 2 subcutaneous doses at 1 and 5 hours postinfection The ED50 value was determined as described by W. E. Wick et al., Journal of Bacteriology, 81 [No. 2], 233-235 (1961).

Serratia marcescens SE3 = assay: MIC by standard agar dilution test; assay type: cell-based
Source text: (§1) The antibacterial activity of the antibiotic compounds of this invention is illustrated by the following in vitro and in vivo test data obtained with representative compounds. In Tables I and II, the minimum inhibitory concentration (MIC) for representative compounds against a wide range of gram-positive and gram-negative bacteria are presented. The MIC values were obtained by the standard agar dilution test.

[2] = test system: Streptococcus pyogenes C203; assay: MIC by standard agar dilution test; assay type: cell-based; conditions: Table 1, read-out: Minimum Inhibitory Concentration
Source text: as §1

Proteus rettgeri PR2 = assay: MIC by standard agar dilution test; assay type: cell-based; conditions: Providencia rettgeri, Table II, read-out: Minimum Inhibitory Concentration
Source text: as §1

[3] = test system: Enterobacter aerogenes C32; assay: MIC by standard agar dilution test; assay type: cell-based; conditions: Klebsiella aerogenes, Table 1, read-out: Minimum Inhibitory Concentration
Source text: as §1

Enterobacter cloacae EB5 = assay: MIC by standard agar dilution test; assay type: cell-based; conditions: Table 1, read-out: Minimum Inhibitory Concentration
Source text: as §1

Proteus inconstans PV25 = assay: MIC by standard agar dilution test; assay type: cell-based; conditions: Providencia alcalifaciens, Table II, read-out: Minimum Inhibitory Concentration
Source text: as §1

Proteus morganii PR1 = assay: MIC by standard agar dilution test; assay type: cell-based; conditions: Morganella morganii, Table II, read-out: Minimum Inhibitory Concentration
Source text: as §1

Proteus inconstans PR33 = assay: MIC by standard agar dilution test; assay type: cell-based; conditions: Providencia alcalifaciens, Table 1, read-out: Minimum Inhibitory Concentration
Source text: as §1

[4] = test system: Pseudomonas aeruginosa SF-2; assay: MIC by standard agar dilution test; assay type: cell-based; conditions: SF2, Table II, read-out: Minimum Inhibitory Concentration
Source text: as §1

[5] = test system: Klebsiella pneumoniae KL2; assay: MIC by standard agar dilution test; assay type: cell-based; conditions: Table II, read-out: Minimum Inhibitory Concentration
Source text: as §1

[6] = test system: Salmonella heidelberg X514; assay: MIC by standard agar dilution test; assay type: cell-based; conditions: Salmonella enterica, Table 1, read-out: Minimum Inhibitory Concentration
Source text: as §1

[7] = test system: Pseudomonas aeruginosa PI23; assay: MIC by standard agar dilution test; assay type: cell-based; conditions: Table II, read-out: Minimum Inhibitory Concentration
Source text: as §1

Escherichia coli N10 = assay: MIC by standard agar dilution test; assay type: cell-based; conditions: Table 1, read-out: Minimum Inhibitory Concentration
Source text: as §1

[8] = test system: Pseudomonas aeruginosa X528; assay: MIC by standard agar dilution test; assay type: cell-based
Source text: as §1

[9] = test system: Staphylococcus epidermidis EPI2; assay: MIC by standard agar dilution test; assay type: cell-based; conditions: Table 1, read-out: Minimum Inhibitory Concentration
Source text: as §1

[10] = test system: Staphylococcus aureus S13E; assay: MIC by standard agar dilution test; assay type: cell-based; conditions: read-out: Minimum Inhibitory Concentration
Source text: as §1

[11] = test system: Streptococcus pneumoniae Park 1; assay: MIC by standard agar dilution test; assay type: cell-based; conditions: PARK1, Table 1, read-out: Minimum Inhibitory Concentration
Source text: as §1

[12] = test system: Pseudomonas aeruginosa X239; assay: MIC by standard agar dilution test; assay type: cell-based
Source text: as §1

Serratia marcescens SE2 = assay: MIC by standard agar dilution test; assay type: cell-based; conditions: Table II, read-out: Minimum Inhibitory Concentration
Source text: as §1

Shigella sonnei N9 = assay: MIC by standard agar dilution test; assay type: cell-based; conditions: Table 1, read-out: Minimum Inhibitory Concentration
Source text: as §1

Proteus rettgeri PR7 = assay: MIC by standard agar dilution test; assay type: cell-based; conditions: Providencia rettgeri, Table 1, read-out: Minimum Inhibitory Concentration
Source text: as §1

[13] = test system: Salmonella typhimurium 1335; assay: MIC by standard agar dilution test; assay type: cell-based; conditions: Salmonella enterica, Table 1, read-out: Minimum Inhibitory Concentration
Source text: as §1

[14] = test system: Klebsiella pneumoniae X26; assay: MIC by standard agar dilution test; assay type: cell-based; conditions: Table 1, read-out: Minimum Inhibitory Concentration
Source text: as §1

[15] = test system: Staphylococcus epidermidis EPI1; assay: MIC by standard agar dilution test; assay type: cell-based; conditions: Table 1, read-out: Minimum Inhibitory Concentration
Source text: as §1

[16] = test system: Pseudomonas aeruginosa Ps25; assay: MIC by standard agar dilution test; assay type: cell-based; conditions: Table II, read-out: Minimum Inhibitory Concentration
Source text: as §1

[17] = test system: Enterobacter cloacae 265A; assay: MIC by standard agar dilution test; assay type: cell-based; conditions: Table 1, read-out: Minimum Inhibitory Concentration
Source text: as §1

[18] = test system: Pseudomonas aeruginosa 4276; assay: MIC by standard agar dilution test; assay type: cell-based; conditions: Table II, read-out: Minimum Inhibitory Concentration
Source text: as §1

[19] = test system: Enterobacter aerogenes EB17; assay: MIC by standard agar dilution test; assay type: cell-based; conditions: Klebsiella aerogenes, Table 1, read-out: Minimum Inhibitory Concentration
Source text: as §1

Proteus morganii PR15 = assay: MIC by standard agar dilution test; assay type: cell-based; conditions: Morganella morganii, Table 1, read-out: Minimum Inhibitory Concentration
Source text: as §1

[20] = test system: Klebsiella pneumoniae KAE; assay: MIC by standard agar dilution test; assay type: cell-based; conditions: Table 1, read-out: Minimum Inhibitory Concentration
Source text: as §1

[21] = test system: Haemophilus influenzae R252; assay: MIC by standard agar dilution test; assay type: cell-based; conditions: Table 1; Haemophilus influenzae R252; agar dilution; read-out: Minimum Inhibitory Concentration
Source text: as §1

[22] = test system: Enterobacter aerogenes EB6; assay: MIC by standard agar dilution test; assay type: cell-based; conditions: Klebsiella aerogenes; Table II; Enterobacter aerogenes EB6; agar dilution; read-out: Minimum Inhibitory Concentration
Source text: as §1

[23] = test system: Staphylococcus aureus X400; assay: MIC by standard agar dilution test; assay type: cell-based; conditions: Table 1, read-out: Minimum Inhibitory Concentration
Source text: as §1

Escherichia coli EC14 = assay: MIC by standard agar dilution test; assay type: cell-based; conditions: Table 1, read-out: Minimum Inhibitory Concentration
Source text: as §1

[24] = test system: Enterobacter aerogenes X68; assay: MIC by standard agar dilution test; assay type: cell-based; conditions: Klebsiella aerogenes, Table 1, read-out: Minimum Inhibitory Concentration
Source text: as §1

[25] = test system: Enterobacter cloacae EB24; assay: MIC by standard agar dilution test; assay type: cell-based; conditions: Table II; Enterobacter cloacae EB24; agar dilution; read-out: Minimum Inhibitory Concentration
Source text: as §1

Serratia marcescens X99 = assay: MIC by standard agar dilution test; assay type: cell-based
Source text: as §1

Proteus rettgeri C24 = assay: MIC by standard agar dilution test; assay type: cell-based; conditions: Providencia rettgeri, Table 1, read-out: Minimum Inhibitory Concentration
Source text: as §1

CN[C@@H]1[C@@H](O[C@H]2O[C@H](CO)[C@@H](NC(C)=O)[C@H](O)[C@H]2O)O[C@H]2C[C@@H](N)[C@@H](O[C@H]3[C@H](O)[C@@H](O)[C@H](N)C[C@@H]3N)O[C@@H]2[C@@H]1O [Test Compound 1, 4"-N-Acetylapramycin]
ED50 [1]: 9.4 mg/kg | MIC (Serratia marcescens SE3; SE3, Table 1, read-out: Minimum Inhibitory Concentration): 32 µg/mL (≈ 55 µM) | MIC (Serratia marcescens SE3; SE3, Table II, read-out: Minimum Inhibitory Concentration): 8 µg/mL (≈ 13.8 µM) | MIC [2]: > 128 µg/mL | MIC (Proteus rettgeri PR2): 32 µg/mL (≈ 55 µM) | MIC [3]: 16 µg/mL (≈ 27.5 µM) | MIC (Enterobacter cloacae EB5): 32 µg/mL (≈ 55 µM) | MIC (Proteus inconstans PV25): 8 µg/mL (≈ 13.8 µM) | MIC (Proteus morganii PR1): 8 µg/mL (≈ 13.8 µM) | MIC (Proteus inconstans PR33): 16 µg/mL (≈ 27.5 µM) | MIC [4]: 64 µg/mL (≈ 110 µM) | MIC [5]: 8 µg/mL (≈ 13.8 µM) | MIC [6]: 32 µg/mL (≈ 55 µM) | MIC [7]: > 128 µg/mL | MIC (Escherichia coli N10): 32 µg/mL (≈ 55 µM) | Minimum Inhibitory Concentration ([8]; Table 1): 64 µg/mL | MIC ([8]; Table II, read-out: Minimum Inhibitory Concentration): 64 µg/mL (≈ 110 µM) | MIC [9]: 64 µg/mL (≈ 110 µM) | MIC [10]: 64 µg/mL (≈ 110 µM) | MIC [11]: 128 µg/mL (≈ 220 µM) | MIC ([12]; X239, Table 1, read-out: Minimum Inhibitory Concentration): 64 µg/mL (≈ 110 µM) | MIC ([12]; X239, Table II, read-out: Minimum Inhibitory Concentration): 32 µg/mL (≈ 55 µM) | MIC (Serratia marcescens SE2): 8 µg/mL (≈ 13.8 µM) | MIC (Shigella sonnei N9): 32 µg/mL (≈ 55 µM) | MIC (Proteus rettgeri PR7): 32 µg/mL (≈ 55 µM) | MIC [13]: 32 µg/mL (≈ 55 µM) | MIC [14]: 16 µg/mL (≈ 27.5 µM) | MIC [15]: 32 µg/mL (≈ 55 µM) | MIC [16]: 32 µg/mL (≈ 55 µM) | MIC [17]: 32 µg/mL (≈ 55 µM) | MIC [18]: 32 µg/mL (≈ 55 µM) | MIC [19]: 16 µg/mL (≈ 27.5 µM) | MIC (Proteus morganii PR15): 32 µg/mL (≈ 55 µM) | MIC [20]: 16 µg/mL (≈ 27.5 µM) | MIC [21]: 16 µg/mL (≈ 27.5 µM) | MIC [22]: 8 µg/mL (≈ 13.8 µM) | MIC [23]: 128 µg/mL (≈ 220 µM) | MIC (Escherichia coli EC14): 16 µg/mL (≈ 27.5 µM) | MIC [24]: 16 µg/mL (≈ 27.5 µM) | MIC [25]: 8 µg/mL (≈ 13.8 µM) | MIC (Serratia marcescens X99; X99, Table 1, read-out: Minimum Inhibitory Concentration): 16 µg/mL (≈ 27.5 µM) | MIC (Serratia marcescens X99; X99, Table II, read-out: Minimum Inhibitory Concentration): 4 µg/mL (≈ 6.88 µM) | MIC (Proteus rettgeri C24): 32 µg/mL (≈ 55 µM)
